Data as given in ChEMBL document CHEMBL3885881, “DrugMatrix”.

Species: Rattus norvegicus
Experiment: DrugMatrix - Regimen: Daily Repeat
Assay type: toxicity, organism-based, Sprague-Dawley
Design: regimen Daily Repeat, gender Male, age 6-8 weeks
Conditions: in vivo, po, route oral GAVAGE, vehicle 100 % WATER; for ABSOLUTE BASOPHIL / ABSOLUTE EOSINOPHIL / ABSOLUTE LYMPHOCYTE / ABSOLUTE MONOCYTE / ABSOLUTE SEGMENTED NEUTROPHIL / BASOPHIL / EOSINOPHIL / ERYTHROCYTE COUNT / HEMATOCRIT / HEMOGLOBIN / LEUKOCYTE COUNT / LYMPHOCYTE / MEAN CORPUSCULAR HEMOGLOBIN / MEAN CORPUSCULAR HEMOGLOBIN CONCENTRATION / MEAN CORPUSCULAR VOLUME / MONOCYTE / NEUTROPHIL / NUCLEATED RED BLOOD CELLS / PLATELET COUNT: tissue Blood; for ALANINE AMINOTRANSFERASE / ALBUMIN / ALKALINE PHOSPHATASE / ASPARTATE AMINOTRANSFERASE / BLOOD UREA NITROGEN / CARBON DIOXIDE / CHLORIDE / CHOLESTEROL / CREATINE PHOSPHOKINASE / CREATININE / GLUCOSE / LACTATE DEHYDROGENASE / LIPASE / PHOSPHORUS / POTASSIUM / SODIUM / TOTAL BILIRUBIN / TOTAL PROTEIN / URIC ACID: tissue Plasma
[1] = 60 mg/kg, 72 h, dose level Low, time 3 day
[2] = 60 mg/kg, 120 h, dose level Low, time 5 day
[3] = 600 mg/kg, 72 h, dose level High, time 3 day
[4] = 600 mg/kg, 120 h, dose level High, time 5 day

C=C(Cl)Cl [1,1-DICHLOROETHENE]
ABSOLUTE BASOPHIL [1]: 0 CELLS/uL | ABSOLUTE EOSINOPHIL [1]: 51.33 CELLS/uL | ABSOLUTE LYMPHOCYTE [1]: 13010.33 CELLS/uL | ABSOLUTE MONOCYTE [1]: 288.67 CELLS/uL | ABSOLUTE SEGMENTED NEUTROPHIL [1]: 1149.67 CELLS/uL | BASOPHIL [1]: 0% | EOSINOPHIL [1]: 0.33% | ERYTHROCYTE COUNT [1]: 5.5 x10E6/uL | HEMATOCRIT [1]: 34% | HEMOGLOBIN [1]: 13.53 G/DL | LEUKOCYTE COUNT [1]: 14.5 x10E3/uL | LYMPHOCYTE [1]: 89.67% | MEAN CORPUSCULAR HEMOGLOBIN [1]: 24.63 pg | MEAN CORPUSCULAR HEMOGLOBIN CONCENTRATION [1]: 39.83 G/DL | MEAN CORPUSCULAR VOLUME [1]: 61.83 fL | MONOCYTE [1]: 2% | NEUTROPHIL [1]: 8% | NUCLEATED RED BLOOD CELLS [1]: 0.33 /100WBC | PLATELET COUNT [1]: 1358.33 x10E3/uL | ALANINE AMINOTRANSFERASE [1]: 52 u/L | ALBUMIN [1]: 4.13 G/DL | ALKALINE PHOSPHATASE [1]: 441.67 u/L | ASPARTATE AMINOTRANSFERASE [1]: 84.67 u/L | BLOOD UREA NITROGEN [1]: 15 mg/dL | CARBON DIOXIDE [1]: 24.33 mmol/L | CHLORIDE [1]: 102 MEQ/L | CHOLESTEROL [1]: 73.33 mg/dL | CREATINE PHOSPHOKINASE [1]: 314 u/L | CREATININE [1]: 0.14 mg/dL | GLUCOSE [1]: 162 mg/dL | LACTATE DEHYDROGENASE [1]: 291.33 u/L | LIPASE [1]: 9 u/L | PHOSPHORUS [1]: 13 mg/dL | POTASSIUM [1]: 6.27 MEQ/L | SODIUM [1]: 144.17 MEQ/L | TOTAL BILIRUBIN [1]: 0.13 mg/dL | TOTAL PROTEIN [1]: 5.77 G/DL | URIC ACID [1]: 1.43 mg/dL | ABSOLUTE BASOPHIL [2]: 0 CELLS/uL | ABSOLUTE EOSINOPHIL [2]: 128.33 CELLS/uL | ABSOLUTE LYMPHOCYTE [2]: 16922 CELLS/uL | ABSOLUTE MONOCYTE [2]: 76.33 CELLS/uL | ABSOLUTE SEGMENTED NEUTROPHIL [2]: 1473.33 CELLS/uL | BASOPHIL [2]: 0% | EOSINOPHIL [2]: 0.67% | ERYTHROCYTE COUNT [2]: 5.28 x10E6/uL | HEMATOCRIT [2]: 33.8% | HEMOGLOBIN [2]: 13.87 G/DL | LEUKOCYTE COUNT [2]: 18.6 x10E3/uL | LYMPHOCYTE [2]: 91.33% | MEAN CORPUSCULAR HEMOGLOBIN [2]: 26.23 pg | MEAN CORPUSCULAR HEMOGLOBIN CONCENTRATION [2]: 41.07 G/DL | MEAN CORPUSCULAR VOLUME [2]: 63.9 fL | MONOCYTE [2]: 0.33% | NEUTROPHIL [2]: 7.67% | NUCLEATED RED BLOOD CELLS [2]: 0 /100WBC | PLATELET COUNT [2]: 1031 x10E3/uL | ALANINE AMINOTRANSFERASE [2]: 56.67 u/L | ALBUMIN [2]: 4.23 G/DL | ALKALINE PHOSPHATASE [2]: 282 u/L | ASPARTATE AMINOTRANSFERASE [2]: 78 u/L | BLOOD UREA NITROGEN [2]: 16.67 mg/dL | CARBON DIOXIDE [2]: 23.67 mmol/L | CHLORIDE [2]: 103.67 MEQ/L | CHOLESTEROL [2]: 71.67 mg/dL | CREATINE PHOSPHOKINASE [2]: 168.67 u/L | CREATININE [2]: 0.22 mg/dL | GLUCOSE [2]: 147.33 mg/dL | LACTATE DEHYDROGENASE [2]: 101.67 u/L | LIPASE [2]: 9.33 u/L | PHOSPHORUS [2]: 13.27 mg/dL | POTASSIUM [2]: 6.62 MEQ/L | SODIUM [2]: 147.33 MEQ/L | TOTAL BILIRUBIN [2]: 0.2 mg/dL | TOTAL PROTEIN [2]: 5.9 G/DL | URIC ACID [2]: 1.67 mg/dL | ABSOLUTE BASOPHIL [3]: 0 CELLS/uL | ABSOLUTE EOSINOPHIL [3]: 0 CELLS/uL | ABSOLUTE LYMPHOCYTE [3]: 19725 CELLS/uL | ABSOLUTE MONOCYTE [3]: 397.33 CELLS/uL | ABSOLUTE SEGMENTED NEUTROPHIL [3]: 2311 CELLS/uL | BASOPHIL [3]: 0% | EOSINOPHIL [3]: 0% | ERYTHROCYTE COUNT [3]: 5.83 x10E6/uL | HEMATOCRIT [3]: 37.37% | HEMOGLOBIN [3]: 15.3 G/DL | LEUKOCYTE COUNT [3]: 22.43 x10E3/uL | LYMPHOCYTE [3]: 88.33% | MEAN CORPUSCULAR HEMOGLOBIN [3]: 26.2 pg | MEAN CORPUSCULAR HEMOGLOBIN CONCENTRATION [3]: 40.93 G/DL | MEAN CORPUSCULAR VOLUME [3]: 64 fL | MONOCYTE [3]: 2% | NEUTROPHIL [3]: 9.67% | NUCLEATED RED BLOOD CELLS [3]: 0.33 /100WBC | PLATELET COUNT [3]: 1189.67 x10E3/uL | ALANINE AMINOTRANSFERASE [3]: 61.33 u/L | ALBUMIN [3]: 4.23 G/DL | ALKALINE PHOSPHATASE [3]: 458.33 u/L | ASPARTATE AMINOTRANSFERASE [3]: 80 u/L | BLOOD UREA NITROGEN [3]: 11.33 mg/dL | CARBON DIOXIDE [3]: 26 mmol/L | CHLORIDE [3]: 103.67 MEQ/L | CHOLESTEROL [3]: 79.67 mg/dL | CREATINE PHOSPHOKINASE [3]: 213.67 u/L | CREATININE [3]: 0.17 mg/dL | GLUCOSE [3]: 159 mg/dL | LACTATE DEHYDROGENASE [3]: 74.33 u/L | LIPASE [3]: 9.67 u/L | PHOSPHORUS [3]: 12.7 mg/dL | POTASSIUM [3]: 6.59 MEQ/L | SODIUM [3]: 144.9 MEQ/L | TOTAL BILIRUBIN [3]: 0.2 mg/dL | TOTAL PROTEIN [3]: 5.83 G/DL | URIC ACID [3]: 1.9 mg/dL | ABSOLUTE BASOPHIL [4]: 0 CELLS/uL | ABSOLUTE EOSINOPHIL [4]: 0 CELLS/uL | ABSOLUTE LYMPHOCYTE [4]: 18262.67 CELLS/uL | ABSOLUTE MONOCYTE [4]: 288.67 CELLS/uL | ABSOLUTE SEGMENTED NEUTROPHIL [4]: 2115.33 CELLS/uL | BASOPHIL [4]: 0% | EOSINOPHIL [4]: 0% | ERYTHROCYTE COUNT [4]: 5.83 x10E6/uL | HEMATOCRIT [4]: 36.67% | HEMOGLOBIN [4]: 14.73 G/DL | LEUKOCYTE COUNT [4]: 20.67 x10E3/uL | LYMPHOCYTE [4]: 89% | MEAN CORPUSCULAR HEMOGLOBIN [4]: 25.23 pg | MEAN CORPUSCULAR HEMOGLOBIN CONCENTRATION [4]: 40.2 G/DL | MEAN CORPUSCULAR VOLUME [4]: 62.87 fL | MONOCYTE [4]: 1.33% | NEUTROPHIL [4]: 9.67% | NUCLEATED RED BLOOD CELLS [4]: 0.33 /100WBC | PLATELET COUNT [4]: 1233.33 x10E3/uL | ALANINE AMINOTRANSFERASE [4]: 48 u/L | ALBUMIN [4]: 4.23 G/DL | ALKALINE PHOSPHATASE [4]: 376.33 u/L | ASPARTATE AMINOTRANSFERASE [4]: 81 u/L | BLOOD UREA NITROGEN [4]: 14.67 mg/dL | CARBON DIOXIDE [4]: 23.33 mmol/L | CHLORIDE [4]: 102 MEQ/L | CHOLESTEROL [4]: 75 mg/dL | CREATINE PHOSPHOKINASE [4]: 337.67 u/L | CREATININE [4]: 0.21 mg/dL | GLUCOSE [4]: 150.33 mg/dL | LACTATE DEHYDROGENASE [4]: 117.33 u/L | LIPASE [4]: 10 u/L | PHOSPHORUS [4]: 12.33 mg/dL | POTASSIUM [4]: 7.1 MEQ/L | SODIUM [4]: 144.9 MEQ/L | TOTAL BILIRUBIN [4]: 0.2 mg/dL | TOTAL PROTEIN [4]: 6.1 G/DL | URIC ACID [4]: 1.77 mg/dL
